Laboratory results taken from patent US11325938B2, “CD73 inhibitors” (ORIC Pharmaceuticals, Inc., priority 2018, dated 2022).

Molecular target: CD73 (Homo sapiens (Human), UniProt P21589)
Assay: Biochemical assay: inhibition of CD73 activity (AMP hydrolysis, Malachite Green readout)
Settings: CD73 0.3208 nM, AMP 15 μM, 25 mM Tris-HCl pH 7.4, RT, absorbance 620 nm
How it was run: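 Human CD73 (320 pM final) preincubated 15 min at RT with compounds (10-point ½-log titration from 100 μM, duplicates) in 25 mM Tris-HCl pH 7.4, 5 mM MgCl2, 0.01% Brij-35, 0.01% BSA. 15 μM AMP added, 10 min at RT; released phosphate read by Malachite Green absorbance; IC50 determined.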

CD73, sequence (P21589 27-574): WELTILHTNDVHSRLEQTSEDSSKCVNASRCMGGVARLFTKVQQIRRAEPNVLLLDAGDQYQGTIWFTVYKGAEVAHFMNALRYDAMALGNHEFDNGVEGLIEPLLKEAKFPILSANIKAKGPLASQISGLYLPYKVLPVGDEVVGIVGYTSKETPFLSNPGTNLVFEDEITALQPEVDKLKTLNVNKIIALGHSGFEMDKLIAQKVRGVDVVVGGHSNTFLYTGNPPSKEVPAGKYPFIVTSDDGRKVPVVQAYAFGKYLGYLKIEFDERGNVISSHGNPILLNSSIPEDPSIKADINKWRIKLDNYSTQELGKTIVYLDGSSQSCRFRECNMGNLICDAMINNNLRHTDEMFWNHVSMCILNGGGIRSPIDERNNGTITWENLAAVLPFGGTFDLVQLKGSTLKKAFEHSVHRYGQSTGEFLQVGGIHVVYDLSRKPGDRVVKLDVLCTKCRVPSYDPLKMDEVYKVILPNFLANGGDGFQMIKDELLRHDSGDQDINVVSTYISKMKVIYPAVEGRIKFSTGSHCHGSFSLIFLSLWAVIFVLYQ

| SMILES | IC50 |
| --- | --- |
| O=P(O)(O)CS(=O)(=O)C[C@H]1O[C@@H](n2nnc3c(NCC4CC4)cc(Cl)nc32)[C@H](O)[C@@H]1O [Example 25, (((((2S,3S,4R,5R)-5-(5-chloro-7-((cyclopropylmethyl)amino)-3H-[1,2,3]triazolo[4,5-b]pyridin-3-yl)-3,4-dihydroxytetrahydrofuran-2-yl)methyl)sulfonyl)methyl)phosphonic acid] | ≤ 100 nM |
| O=P(O)(O)C(CO)(CO)OC[C@H]1O[C@@H](n2ncc3c(N[C@@H]4CCCc5ccccc54)nc(Cl)nc32)[C@H](O)[C@@H]1O (racemic) [Example 189, rac-(2-(((2R,3S,4R,5R)-5-(6-chloro-4-(((R)-1,2,3,4-tetrahydronaphthalen-1-yl)amino)-1H-pyrazolo[3,4-d]pyrimidin-1-yl)-3,4-dihydroxytetrahydrofuran-2-yl)methoxy)-1,3-dihydroxypropan-2-yl)phosphonic acid] | ≤ 100 nM |
| O=P(O)(O)C(CO)OC[C@H]1O[C@@H](n2ncc3c(NC4CCCC4)cc(Cl)nc32)[C@H](O)[C@@H]1O (stereo partly drawn) [Example 57, (1-(((2R,3S,4R,5R)-5-(6-Chloro-4-(cyclopentylamino)-1H-pyrazolo[3,4-b]pyridin-1-yl)-3,4-dihydroxytetrahydrofuran-2-yl)methoxy)-2-hydroxyethyl)phosphonic acid] | ≤ 100 nM |
| CC(CCO)(OC[C@H]1O[C@@H](n2ncc3c(NC4CCCC4)nc(Cl)nc32)[C@H](O)[C@@H]1O)P(=O)(O)O (stereo partly drawn) [Example 56, (2-(((2R,3S,4R,5R)-5-(6-Chloro-4-(cyclopentylamino)-1H-pyrazolo[3,4-d]pyrimidin-1-yl)-3,4-dihydroxytetrahydrofuran-2-yl)methoxy)-4-hydroxybutan-2-yl)phosphonic acid] | ≤ 100 nM |
| COCC(C)(OC[C@H]1O[C@@H](n2nnc3c(N[C@@H]4CCc5ccccc54)nc(Cl)nc32)[C@H](O)[C@@H]1O)P(=O)(O)O (stereo partly drawn) [Example 155, (2-(((2R,3S,4R,5R)-5-(5-chloro-7-(((R)-2,3-dihydro-1H-inden-1-yl)amino)-3H-[1,2,3]triazolo[4,5-d]pyrimidin-3-yl)-3,4-dihydroxytetrahydrofuran-2-yl)methoxy)-1-methoxypropan-2-yl)phosphonic acid] | ≤ 100 nM |
| C[C@](CO)(OC[C@H]1O[C@@H](n2ncc3c(NC4CCCC4)nc(OCCO)nc32)[C@H](O)[C@@H]1O)P(=O)(O)O [Example 147, ((S)-2-(((2R,3S,4R,5R)-5-(4-(cyclopentylamino)-6-(2-hydroxyethoxy)-1H-pyrazolo[3,4-d]pyrimidin-1-yl)-3,4-dihydroxytetrahydrofuran-2-yl)methoxy)-1-hydroxypropan-2-yl)phosphonic acid] | ≤ 100 nM |
| N#CC(OC[C@H]1O[C@@H](n2ncc3c(NC4CCCC4)nc(Cl)nc32)[C@H](O)[C@@H]1O)P(=O)(O)O (stereo partly drawn) [Example 2, ((((2R,3S,4R,5R)-5-(6-Chloro-4-(cyclopentylamino)-1H-pyrazolo[3,4-d]pyrimidin-1-yl)-3,4-dihydroxytetrahydrofuran-2-yl)methoxy)(cyano)methyl)phosphonic acid] | 100 to 1000 nM |
| O=P(O)(O)C(CO)OC[C@H]1O[C@@H](n2ncc3c(N[C@H]4CCc5ccccc54)nc(Cl)nc32)[C@H](O)[C@@H]1O (stereo partly drawn) [Example 39, (1-(((2R,3S,4R,5R)-5-(6-chloro-4-(((S)-2,3-dihydro-1H-inden-1-yl)amino)-1H-pyrazolo[3,4-d]pyrimidin-1-yl)-3,4-dihydroxytetrahydrofuran-2-yl)methoxy)-2-hydroxyethyl)phosphonic acid] | ≤ 100 nM |
| O=P(O)(O)COC[C@H]1O[C@@H](n2nnc3c(NCc4cccc(Cl)c4)cc(Cl)nc32)[C@H](O)[C@@H]1O [Example 22, ((((2R,3S,4R,5R)-5-(5-chloro-7-((3-chlorobenzyl)amino)-3H-[1,2,3]triazolo[4,5-b]pyridin-3-yl)-3,4-dihydroxytetrahydrofuran-2-yl)methoxy)methyl)phosphonic acid] | ≤ 100 nM |
| O=C(O)C(OC[C@H]1O[C@@H](n2ncc3c(NC4CCCC4)nc(Cl)nc32)[C@H](O)[C@@H]1O)P(=O)(O)O (stereo partly drawn) [Example 28, 2-(((2R,3S,4R,5R)-5-(6-chloro-4-(cyclopentylamino)-1H-pyrazolo[3,4-d]pyrimidin-1-yl)-3,4-dihydroxytetrahydrofuran-2-yl)methoxy)-2-phosphonoacetic acid] | ≤ 100 nM |
| O=P(O)(O)C(CO)(CO)OC[C@H]1O[C@@H](n2ncc3c(N[C@@H]4CCc5cc(F)ccc54)nc(Cl)nc32)[C@H](O)[C@@H]1O (racemic) [Example 176, rac-(2-(((2R,3S,4R,5R)-5-(6-chloro-4-(((R)-5-fluoro-2,3-dihydro-1H-inden-1-yl)amino)-1H-pyrazolo[3,4-d]pyrimidin-1-yl)-3,4-dihydroxytetrahydrofuran-2-yl)methoxy)-1,3-dihydroxypropan-2-yl)phosphonic acid] | ≤ 100 nM |
| NC(=O)OC[C@](CO)(OC[C@H]1O[C@@H](n2ncc3c(NC4CCCC4)nc(Cl)nc32)[C@H](O)[C@@H]1O)P(=O)(O)O (racemic) [Example 216, rac-((R)-1-(carbamoyloxy)-2-(((2R,3S,4R,5R)-5-(6-chloro-4-(cyclopentylamino)-1H-pyrazolo[3,4-d]pyrimidin-1-yl)-3,4-dihydroxytetrahydrofuran-2-yl)methoxy)-3-hydroxypropan-2-yl)phosphonic acid] | ≤ 100 nM |
| O=C(O)c1ccc(C[C@@](CO)(OC[C@H]2O[C@@H](n3ncc4c(NC5CCCC5)nc(Cl)nc43)[C@H](O)[C@@H]2O)P(=O)(O)O)cc1 (racemic) [Example 187, rac-4-((R)-2-(((2R,3S,4R,5R)-5-(6-chloro-4-(cyclopentylamino)-1H-pyrazolo[3,4-d]pyrimidin-1-yl)-3,4-dihydroxytetrahydrofuran-2-yl)methoxy)-3-hydroxy-2-phosphonopropyl)benzoic acid] | 100 to 1000 nM |
| O=P(O)(O)C(CO)(Cc1ncccn1)OC[C@H]1O[C@@H](n2ncc3c(NC4CCCC4)nc(Cl)nc32)[C@H](O)[C@@H]1O (mixture of isomers) [Example 168, rac-(2-(((2R,3S,4R,5R)-5-(6-chloro-4-(cyclopentylamino)-1H-pyrazolo[3,4-d]pyrimidin-1-yl)-3,4-dihydroxytetrahydrofuran-2-yl)methoxy)-1-hydroxy-3-(pyrimidin-2-yl)propan-2-yl)phosphonic acid] | ≤ 100 nM |
| COCC(COC)(OC[C@H]1O[C@@H](n2ncc3c(NCC4CC4)nc(Cl)nc32)[C@H](O)[C@@H]1O)P(=O)(O)O [Example 125, (2-(((2R,3S,4R,5R)-5-(6-chloro-4-((cyclopropylmethyl)amino)-1H-pyrazolo[3,4-d]pyrimidin-1-yl)-3,4-dihydroxytetrahydrofuran-2-yl)methoxy)-1,3-dimethoxypropan-2-yl)phosphonic acid] | ≤ 100 nM |
| CC(CO)(OC[C@H]1O[C@@H](n2ncc3c(NC4CCC4)nc(Cl)nc32)[C@H](O)[C@@H]1O)P(=O)(O)O (stereo partly drawn) [Example 130, (2-(((2R,3S,4R,5R)-5-(6-chloro-4-(cyclobutylamino)-1H-pyrazolo[3,4-d]pyrimidin-1-yl)-3,4-dihydroxytetrahydrofuran-2-yl)methoxy)-1-hydroxypropan-2-yl)phosphonic acid] | ≤ 100 nM |
